Here are results for one compound from patent US5162361A, “Method of treating diseases associated with elevated levels of interleukin 1” (priority 1990, dated 1992).

The assay has as its system membrane IL-1. Put plainly: Effect on membrane IL-1 (mIL-1 bioassay). It counts as cell-based, rat. Conditions: LPS 5 ng/ml, 24 h, FIG. 4. Here is the method: Membrane IL-1 was assayed as previously described (E. A. Kurt-Jones et al, Proc. Natl. Acad. Sci. USA, 82, 1204 (1985)). 10^5 cells were cultured in media and 10% FCS with or without pentamidine at varying concentrations and LPS at 5 ng/ml for 24 hours and then fixed to the bottom of the 96 well plates with paraformaldehyde. The IL-1 bioassay was then performed as described in Example 1.

Consider `N=C(N)c1ccc(OCCCCCOc2ccc(C(=N)N)cc2)cc1` [Pentamidine, 1,5-bis(4-amidinophenoxy)pentane], for which the “Amount of bioactive membrane IL-1 (mIL-1)” value is on record as “increased in a dose related manner”.
